Experimental findings from the NIST ThermoML archive (doi:10.1016/j.tca.2018.05.016) are described below.

A short description of series [1]: Molar enthalpy of transition or fusion. To be noted: Crystal; DSC.
The conditions of series [2]: Crystal; DSC.

SMILES strings stand for the structures. Numbers after ± are expanded uncertainties.

As to `O=[N+]([O-])[O-].c1cc[nH+]cc1` [pyridinium nitrate], the “Molar enthalpy of transition or fusion” value in series [1] worked out at 4.13 ± 0.148 kcal/mol. Besides, the Triple point temperature in series [2] worked out at 390 ± 5 K.
